Assay results published in paper PMC10299677, “Fluorinated Benzofuran and Dihydrobenzofuran as Anti-Inflammatory and Potential Anticancer Agents” (International Journal of Molecular Sciences, 2023).

Test: Toxicity on macrophages (BMDM), WST-1 assay
Assay type: cell-based, C57BL/6J mice
Settings: C57BL/6J, mouse, bone marrow-derived macrophages (BMDM), read-out: macrophage viability
Protocol: WST-1 assay (Sigma-Aldrich, 5015944001) was used to determine the toxicity of the synthesized compounds on BMDM and HCT116 (ATCC, CCL-247), kindly provided by Dr. Nadine Darwiche, Department of Biochemistry and Molecular Genetics, American University of Beirut, Lebanon. Briefly, macrophages (50,000 cells per well) and HCT116 (20,000 cells per well) were plated in a 96-well plate in RPMI 1640 culture medium containing 10% fetal bovine serum (FBS) and grown for 24 h. Cells (in triplicates) were treated with 10 or 50 μM of the compounds for macrophages, and 50 or 100 μM for HCT116. Culture medium without cells and cells without treatment were used as basal and maximal activity, respectively. Results were expressed as percentage of cells without treatment.
F i g u re S1: E ff e c t of fluorin at ed benzofuran derivatives on m acrophages
viabilit y. C ells in cub at ed with 10 and 50 μM of benzofuran d eri vativ es
(compounds 1 to 9) bel onging to groups І, II, III and IV for 24 hours. Cell
viabilit y w as det ermin ed by WST-1 assay. Non-t r eated m acrophages wer e used
as cont rol. Results were shown as mean ± SEM (n=3) . *p< 0.05 comp ar ed to the
vehicle –treated cells (basal), one-way ANOVA followed by Dunnett’s test.
(1 picture or pasted object on this page, not shown here)

With `COC(=O)/C=C1/Oc2ccc(Br)cc2C1(F)F` [Compound 1] the viability at 24 h, 50 µM was 50%.
